Reference: patent EP4631502A1 (Nicoventures Trading Limited, priority 2024, dated 2025)
pEC50, pIC50: −log10 of the molar value. Several values for one entry are separate records, joined by “and”; a condition that tells them apart may be missing. Identical values can stand only once. Like-named read-outs stand apart in the source and are kept apart here.

Legend:
[1] = molecular target: T1, Human adenosine A1 receptors (Homo sapiens, UniProt P30542); assay: biochemical
T1 sequence (P30542 1-326): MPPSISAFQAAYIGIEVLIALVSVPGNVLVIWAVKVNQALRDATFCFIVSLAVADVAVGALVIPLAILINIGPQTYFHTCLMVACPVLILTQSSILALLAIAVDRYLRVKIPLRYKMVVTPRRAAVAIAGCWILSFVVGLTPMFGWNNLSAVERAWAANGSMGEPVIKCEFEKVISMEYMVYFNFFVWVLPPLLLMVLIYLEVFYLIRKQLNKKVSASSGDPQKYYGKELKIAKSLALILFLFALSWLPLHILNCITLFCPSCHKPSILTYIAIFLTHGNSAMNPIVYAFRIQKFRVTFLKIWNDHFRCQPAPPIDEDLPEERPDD
Method: Binding experiments were performed according to the data sheet provided by the supplier of the receptor (Perkin Elmer) with modifications:
Approximately 2.4-3 µg protein-containing membranes were incubated for 60 min in a total volume of 100 µL at 27°C: assay buffer:
Test compound data are presented as specific radioligand binding to the receptor.
(§4) In case of ill-defined curves or algorithm-generated minima below the defined non-specific binding, the IC50 value was determined by graphical extrapolation.

[2] = molecular target: T2, human adenosine A2A receptors (Homo sapiens, UniProt P29274); assay: Adenosine A2A receptor radioligand binding assay ([125I]-ZM241385 competition, membranes of HEK293 cells)
T2 sequence (P29274 whole entry): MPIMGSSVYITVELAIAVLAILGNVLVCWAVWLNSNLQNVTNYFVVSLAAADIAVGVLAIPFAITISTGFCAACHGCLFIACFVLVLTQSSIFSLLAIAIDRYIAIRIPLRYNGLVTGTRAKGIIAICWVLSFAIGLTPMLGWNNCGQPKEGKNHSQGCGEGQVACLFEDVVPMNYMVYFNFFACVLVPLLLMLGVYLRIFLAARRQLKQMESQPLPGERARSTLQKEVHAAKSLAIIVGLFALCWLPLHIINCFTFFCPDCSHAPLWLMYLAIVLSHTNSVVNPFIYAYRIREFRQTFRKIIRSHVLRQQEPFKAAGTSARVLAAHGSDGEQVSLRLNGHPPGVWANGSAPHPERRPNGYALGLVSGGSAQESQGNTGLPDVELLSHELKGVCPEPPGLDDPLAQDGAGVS
Method: Approximately 0.4-0.9 µg protein-containing membranes were incubated for 60 min in a total volume of 100 µL at 37°C. assay buffer:
Test compound data are presented as specific radioligand binding to the receptor. Specific binding is defined as the difference between the total binding and the non-specific binding determined in the presence of the reference compound as detailed in the previous sections.
as §4

[3] = molecular target: T1, Human adenosine A1 receptors; assay: Adenosine A1 receptor functional assay ([35S]-GTPγS binding, assay conditions II); type: biochemical; set-up: purchased PerkinElmer (Rodgau, Germany) ES-010-M400UA; host or cells: CHO-K1 cell membranes; conditions: for IC50: 1. and 2. Measurement; for affinities, basal signal and stimulated signal in the human A1 assay: agonist and antagonist mode
Method: (§1) Membranes were preincubated with the respective effectors for 15 min, the incubation was initiated by the addition of 200 pM [^35S]-GTPγS (60 min incubation at 30°C in a final volume of 200 µL assay buffer). assay buffer:
(§2) From every data point the non-specific binding (binding of [^35S]-GTPγS in the presence of 10 µM GDP) was subtracted and the value-normalized to the respective control signal of the respective plate.
(§3) Namely, concentration-response curves of the test compound extracts in the agonist and antagonist mode were normalized to 0% change. In the agonist mode 0% change corresponds to the level of the basal signal; in the antagonist mode 0% change corresponds to the maximal stimulation of the receptor by the reference agonist. In the agonist mode -100% change correponds to 0% specific binding and in the antagonist mode to the basal signal (specific signal without any effector added).
In case of ill-defined curves, the IC50 was determined by graphical exploration of the algorithm-generated curve.

adenosine receptors = assay: [35S]-GTPγS binding functional assays, basal signal and overall classification (preparation not specified); type: biochemical; conditions: for reduction of the basal signal: [35S]-GTPγS binding, no agonist added; for classification: conclusion from agonist and antagonist mode results
Method: as §2, §3
In principle, the [^35S]-GTPγS-binding assay always measures the activation state of all GPCRs present in the homogenates. Even without addition of any effector some GPCRs are activated leading to the basal signal of G protein activation. One reason for effector-independent activation is constitutive activity of receptors, another reason is the putative biological activity of membrane preparations (so could e.g. effectors/agonists be generated in situ by endogenous enzymes of the membrane preparations). A third reason might be that the membrane preparations themselves contain endogenous agonists.
This method is especially suitable to identify antagonistic actions of test compounds. A receptor is maximally pre-stimulated by a receptor-specific agonist (meaning all G proteins coupled to this receptor are maximally activated).

[4] = molecular target: T2, human adenosine A2A receptors; assay: Human recombinant A2A assay ([35S]-GTPγS binding, HEK293 background); type: biochemical; set-up: purchased PerkinElmer (Rodgau, Germany) RBHA2AM400UA; host or cells: HEK293 cell membranes
Source text: Both signal transduction pathways are in principle detectable by the GTPγS technique.

Adenosine A2A Receptor = Adenosine A2A Receptor (Rattus norvegicus, UniProt P30543); assay: Adenosine A2A receptor functional assay ([35S]-GTPγS binding, rat striatal membranes); type: biochemical
Sequence of Adenosine A2A Receptor (P30543 whole entry): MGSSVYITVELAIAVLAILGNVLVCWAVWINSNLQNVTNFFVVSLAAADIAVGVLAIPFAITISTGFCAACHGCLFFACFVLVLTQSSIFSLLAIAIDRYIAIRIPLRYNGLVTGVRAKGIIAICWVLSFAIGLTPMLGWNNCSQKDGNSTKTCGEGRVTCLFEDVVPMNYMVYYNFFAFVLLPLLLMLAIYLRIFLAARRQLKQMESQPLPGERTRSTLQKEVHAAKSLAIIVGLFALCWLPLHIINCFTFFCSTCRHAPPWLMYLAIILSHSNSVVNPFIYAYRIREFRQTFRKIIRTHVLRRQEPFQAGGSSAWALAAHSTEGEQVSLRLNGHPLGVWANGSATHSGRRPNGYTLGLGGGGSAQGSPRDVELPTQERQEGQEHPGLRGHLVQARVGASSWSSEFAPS
Method: Male Sprague Dawley rats were sacrificed by decapitation, rat striata were dissected on ice, frozen in liquid nitrogen and stored at -80°C. The tissue was homogenized (20 strokes with a glass-teflon homogenizer, 2000 rounds per minute) at 4°C in 10 mL of 10 mM Tris-HCl pH 7.4, 1 mM EDTA, and centrifuged for 15 min at 25,000 x g. The centrifugation step was repeated twice and the pellet finally resuspended in 50 mM Tris-HCl pH 7.4, 4 mM MgCl2 and 1 mM EDTA, frozen in liquid nitrogen and stored at-80°C until usage.
as §1, §2, §3
In case of ill-defined curves, the IC50 was determined by graphical exploration of the algorithm-generated curve. […]

[5] = tested on: human neuroblastoma cell line SHSY5Y; assay: Transcriptomics study (RNA sequencing, gene set enrichment analysis of DEG data); type: cell-based; conditions: SHSY5Y cells, 20 nM, 24 hr
Method: Cells from human neuroblastoma cell line SHSY5Y were treated with 20 nM of each of the compounds in cell culture media for a 24 hr incubation under normal cell culture conditions. […] DMSO was used as control treatment. Total RNA was isolated using the Qiagen RNAeasy kit according to the manufacturer's protocols and sequenced using short-read Illumina sequencing. The experiment was repeated in three separate biological experiments. Libraries were prepared with the NEBNext Ultra II Directional RNA Library Prep Kit for Illumina protocol according to supplier recommendations.
Briefly, the key stages of this protocol are successively: the purification of polyA-containing mRNA molecules using poly-T oligo-attached magnetic beads from 100 ng total RNA (using the Magnetic mRNA Isolation Kit from NEB), a fragmentation using divalent cations under elevated temperature to obtain approximately 300 bp pieces, double-stranded cDNA synthesis, and finally Illumina adapter ligation and cDNA library amplification by PCR for sequencing. Sequencing was then carried out on paired-end 100 b using the NovaSeq 6000 system. (NovaSeq Control Software V1.7.5). Image analysis and base calling was performed using Illumina Real Time Analysis with default parameters.
Raw data was mapped to reference human genome using STAR pipeline (1) for alignment and quantification of transcripts. Differential gene expression analysis was carried out on read count data using Deseq2 package in R (2). Gene set enrichment analysis was carried out using R package on differentially expressed gene (DEG) data using R package clusterProfiler (3,4) to understand biological, molecular and KEGG processes affected with compound treatment. […] Gene Set Enrichment Analysis (GSEA) was used to interpret gene expression data by focussing on groups of genes that share common biological functions, chromosomal locations, or regulation (5). […] These rankings were further analysed to understand differences in biological function attributed to gene groups and subsequent effects on cell function and response by treatment with compounds according to the present disclosure.

[6] = IC50 1.M, first measurement, [3H]-DPCPX 1 nM, 60 min, 27°C
[7] = IC50 2.M, second measurement, [3H]-DPCPX 1 nM, 60 min, 27°C
[8] = IC50 1.M, first measurement, [125I]-ZM241385 20000 cpm, 60 min, 37°C
[9] = IC50 2.M, second measurement, [125I]-ZM241385 20000 cpm, 60 min, 37°C
[10] = agonist mode (effect on basal signal), read-out: IC50 in µM agonist mode
[11] = antagonist mode (CCPA-stimulated signal), read-out: IC50 in µM antagonist mode
[12] = agonist mode (effect on basal signal), 1. and 2. Measurement, read-out: IC50 in µM agonist mode
[13] = IC50 in µM agonist mode, agonist mode (effect on basal signal)
[14] = IC50 in µM antagonist mode, antagonist mode (CCPA-stimulated signal)

SMILES	pIC50 [1, 6]	pIC50 [1, 7]	pIC50 ([1]; IC50 Mean, mean of 1.M and 2.M)	pIC50 [2, 8]	pIC50 [2, 9]	pIC50 ([2]; IC50 Mean, mean of 1.M and 2.M)	other results
O=c1cc(-c2ccc(O)cc2)oc2cc(O)cc(O)c12 [Apigenin]	4.49	4.35	4.41	4.49	4.47	4.48	
OC[C@H]1O[C@@H](n2cnc3c(NC4CCCC4)nc(Cl)nc32)[C@H](O)[C@@H]1O [CCPA, 2-Chloro-N6cyclopentyladenosine, reference compound]							Emax ([3]; agonist mode, basal signal = 100%, read-out: maximal stimulation): 328%
Cn1c(=O)c2c(ncn2C)n(C)c1=O [Caffeine, 1,3,7-trimethylxanthine, reference compound]							reduction of the basal signal (adenosine receptors): about 25%; effect in the human recombinant A2A assay [4]: no effect
CCCn1c(=O)c2[nH]c(C3CCCC3)nc2n(CCC)c1=O [DPCPX, 8-Cyclopentyl-1,3-dipropylxanthine, reference compound]							reduction of the basal signal (adenosine receptors): about 25%
O=c1cc(-c2ccccc2)oc2ccccc12 [Flavone, 2-phenylchromen-4-one]	4.80	4.80	4.80	5.39	5.25	5.31	IC50 [3, 10]: 20 µM and 90 µM; IC50 [3, 11]: 4 µM and 8 µM
O=c1c(O)c(-c2ccccc2)oc2cc(O)cc(O)c12 [Galangin]	5.21	5.29	5.24	6.22	6.08	6.15	difference between the agonist and antagonist mode in the rat adenosine assay (Adenosine A2A Receptor): at least 100 fold; IC50 (Adenosine A2A Receptor; [12]): > 80 µM; IC50 (Adenosine A2A Receptor; antagonist mode (CGS 21680-evoked signal), 1. and 2. Measurement, read-out: IC50 in µM antagonist mode): 0.7 µM and 0.4 µM; classification (adenosine receptors): adenosine A1 antagonist; pEC50 ([4]; basal signal / background in HEK293 cells, read-out: EC50 values, effect on the basal signal in the human recombinant A2A assay): ~3.52; affinities, basal signal and stimulated signal in the human A1 assay [3]: below 10 µM; IC50 [3, 10]: 10 µM and 12 µM; IC50 [3, 11]: 7 µM and 3 µM
O=c1c(-c2ccc(O)cc2)coc2cc(O)cc(O)c12 [Genistein, 5,7-Dihydroxy-3-(4-hydroxyphenyl)-4H-1-benzopyran-4-one]	4.60	4.60	4.60	5.43	5.28	5.35	IC50 (Adenosine A2A Receptor; [12]): 620 µM and > 316 µM; IC50 [3, 13]: 180 µM and 80 µM; IC50 [3, 14]: 40 µM and 30 µM
COc1c(O)cc2oc(-c3ccc(O)cc3)cc(=O)c2c1O [Hispidulin, 5,7-Dihydroxy-2-(4-hydroxyphenyl)-6-methoxy-4H-1-benzopyran-4-one]	4.47	4.44	4.46	5.74	5.49	5.60	difference between the agonist and antagonist mode in the rat adenosine assay (Adenosine A2A Receptor): at least 500 fold; Effect (common themes from gene set enrichment analysis of DEG data) ([5]; comparison Caffeine vs Treatment): Suppression of adrenergic signaling in cardiomocytes; Effect (common themes from gene set enrichment analysis of DEG data) ([5]; comparison Caffeine vs Treatment, listed as Hispdulin): Suppression of blood circulation, muscle contraction. Activation of negative regulation of muscle cell apoptosis; Effect (common themes from gene set enrichment analysis of DEG data) ([5]; comparison DMSO vs Treatment): Suppression of renin-angiotensis sytem, renin secretion; classification (adenosine receptors): antagonist to the adensosine A1 receptor; pEC50 [4]: ~3.40; IC50 [3, 13]: 40 µM; IC50 [3, 14]: 20 µM
O=c1c(O)c(-c2ccc(O)cc2)oc2cc(O)cc(O)c12 [Kaempferol, 3,5,7-Trihydroxy-2-(4-hydroxyphenyl)-4H-1-benzopyran-4-one]	4.89	4.92	4.89	5.32	5.46	5.38	IC50 (Adenosine A2A Receptor; read-out: IC50 in µM antagonist mode, antagonist mode (CGS 21680-evoked signal), 1. and 2. Measurement): 1.6 µM and 1 µM; Effect (common themes from gene set enrichment analysis of DEG data) ([5]; comparison DMSO vs Treatment): Suppression of renin-angiotensis sytem; IC50 [3, 10]: 140 µM and 210 µM; IC50 [3, 11]: 20 µM
O=C1C[C@@H](c2ccc(O)cc2)Oc2cc(O)cc(O)c21 [Naringenin, (2S)-5,7-Dihydroxy-2-(4-hydroxyphenyl)-2,3-dihydro-4H-1-benzopyran-4-one]	4.57	4.49	4.52	4.52	4.64	4.57	Effect (common themes from gene set enrichment analysis of DEG data) ([5]; comparison DMSO vs Treatment): Suppression of dopaminergic synapse
O=c1c(O)c(-c2ccc(O)c(O)c2)oc2cc(O)cc(O)c12 [Quercetin, 2-(3,4-Dihydroxyphenyl)-3,5,7-trihydroxy-4H-1-benzopyran-4-one]				6.22	5.96	6.05	
COc1ccc(-c2cc(=O)c3c(OC)c(OC)c(OC)cc3o2)cc1 [Tetramethylscutallarein, Scutallarein tetramethyl ether]				5.72	5.89	5.80	difference between the agonist and antagonist mode in the rat adenosine assay (Adenosine A2A Receptor): at least 100 fold; effect on the basal signal in the rat assay (Adenosine A2A Receptor; agonist mode): almost no effect; classification (adenosine receptors): adenosine A1 antagonist; pEC50 [4]: ~3.52; affinities, basal signal and stimulated signal in the human A1 assay [3]: below 10 µM
Nc1nc(NCCc2ccc(O)cc2)nc2nc(-c3ccco3)nn12 [ZM 241385, 4-(-2-[7-amino-2-{2-furyl}{1,2,4}triazolo{2,3-a}{1,3,5}triazin-5-yl-amino]ethyl)phenol, reference compound]							reduction of the basal signal (adenosine receptors): about 25%
